{
  "source": "patent US7335757B2",
  "about": "“Carbonyl reductase, gene encoding the same, and process for producing optically active alcohols using the same” (Mitsubishi Chemical Corporation, priority 2002, dated 2008)",
  "molecules": {"B1": {"name": "carbonyl reductase: Carbonyl reductase purified from Ogataea minuta var. nonfermentans IFO 1473, amino acid sequence SEQ ID NO: 1, about 27,000 Da by SDS-PAGE (protein)", "chain": "MAKTVYFIAGASRGIGLEVASQLSANPDNYVIASYRSEKSASGLLELAKKDNVDTIVLDIASQESIDAVPAQISKLTDGIDVALINAGIANAMCPILECSRESYTDHWTTNALGPIMLYQAIHKFMLQRETRKVFFTTSAGGSIQAKIPVPVSGYGMSKAALNYAVRKLADECYKDNFTIVLLHPGFVKTDMGQSAIQKMSNGNAELLAYIDSMTIDVPTSAGQIVGAIMTLDKQSSGRFINAADQFDMPF", "modifications": "Ogataea minuta var nonfermentans"}},
  "data": [
    {"system": "carbonyl reductase", "experiment": "Temperature stability of the enzyme (residual 2,2,2-trifluoroacetophenone reducing activity)", "type": "biochemical, Ogataea minuta var. nonfermentans IFO 1473", "conditions": "50° C. or more, 10 minutes, 20 mM phosphate buffer pH 7.0", "values": [
      {"molecule": "B1", "residual activity": "rapidly deactivated"}
    ]},
    {"system": "carbonyl reductase", "experiment": "Temperature stability of the enzyme (residual 2,2,2-trifluoroacetophenone reducing activity)", "type": "biochemical, Ogataea minuta var. nonfermentans IFO 1473", "conditions": "70° C., 10 minutes, 20 mM phosphate buffer pH 7.0", "values": [
      {"molecule": "B1", "residual activity": "lost the activity completely"}
    ]},
    {"system": "carbonyl reductase", "experiment": "Temperature stability of the enzyme (residual 2,2,2-trifluoroacetophenone reducing activity)", "type": "biochemical, Ogataea minuta var. nonfermentans IFO 1473", "conditions": "up to 40° C., 10 minutes, 20 mM phosphate buffer pH 7.0", "units": {"residual activity": "%"}, "values": [
      {"molecule": "B1", "residual activity": "≥ 79"}
    ]},
    {"system": "carbonyl reductase", "experiment": "Reduction activity of the enzyme on various ketones and aldehyde (initial rate of NADPH decrease)", "type": "biochemical, Ogataea minuta var. nonfermentans IFO 1473", "conditions": "pH 7", "units": {"Specific activity (%)": "%"}, "values": [
      {"molecule": "O=C(c1ccccc1)C(F)(F)F", "note": "[2,2,2-Trifluoro-acetophenone]", "Specific activity (%)": 100.0},
      {"molecule": "O=C(CCl)c1ccccc1", "note": "[2-Chloro-acetophenone]", "Specific activity (%)": 19.6},
      {"molecule": "O=C1CCCCC1Cl", "note": "(centres unmarked) [2-Chloro-cyclohexanone]", "Specific activity (%)": 163.0},
      {"molecule": "N#CCCc1ccccc1", "note": "[Benzylacetonitrile]", "Specific activity (%)": 25.9},
      {"molecule": "CC(=O)C(C)=O", "note": "[Diacetyl]", "Specific activity (%)": 12.3},
      {"molecule": "CCC(=O)c1ccccc1", "note": "[Propiophenone]", "Specific activity (%)": 18.8},
      {"molecule": "CC(=O)c1cccc(Cl)c1", "note": "[m-Chloro-acetophenone]", "Specific activity (%)": 30.7},
      {"molecule": "CC(=O)c1ccc(Cl)cc1", "note": "[p-Chloro-acetophenone]", "Specific activity (%)": 10.2}
    ]},
    {"system": "carbonyl reductase", "experiment": "Reduction activity of the enzyme on various ketones and aldehyde (initial rate of NADPH decrease)", "type": "biochemical, Ogataea minuta var. nonfermentans IFO 1473", "conditions": "relative to 2,2,2-trifluoroacetophenone defined as 100; NADPH, 0.1 M phosphate buffer pH 7.0", "units": {"Specific activity (%)": "%"}, "values": [
      {"molecule": "CC1(Cl)CCCCC1=O", "note": "(centres unmarked) [2-Chloro-2-Methyl-cyclohexanone]", "Specific activity (%)": 105.4},
      {"molecule": "CCOC(=O)CC(=O)c1ccccc1", "note": "[Ethyl benzoylacetate]", "Specific activity (%)": 10.9},
      {"molecule": "CCOC(=O)C(=O)C(C)C", "note": "[Ethyl-3-methyl-2-oxobutanoate]", "Specific activity (%)": 72.1},
      {"molecule": "CC(=O)c1cccc(Br)c1", "note": "[m-Bromo-acetophenone]", "Specific activity (%)": 21.3},
      {"molecule": "O=Cc1cccc(Cl)c1", "note": "[m-Chlorobenzaldehyde]", "Specific activity (%)": 14.3},
      {"molecule": "O=Cc1cccc([N+](=O)[O-])c1", "note": "[m-Nitrobenzaldehyde]", "Specific activity (%)": 45.6},
      {"molecule": "O=Cc1ccccc1Cl", "note": "[o-Chlorobenzaldehyde]", "Specific activity (%)": 81.2},
      {"molecule": "O=Cc1ccccc1[N+](=O)[O-]", "note": "[o-Nitrobenzaldehyde]", "Specific activity (%)": 52.6},
      {"molecule": "O=Cc1ccc(Cl)cc1", "note": "[p-Chlorobenzaldehyde]", "Specific activity (%)": 15.2},
      {"molecule": "CC1(C)COC(=O)C1=O", "note": "[α-Keto-pantolactone]", "Specific activity (%)": 26.3}
    ]},
    {"system": "carbonyl reductase", "experiment": "2,2,2-trifluoroacetophenone reducing activity after treating the enzyme with various reagents", "type": "biochemical, Ogataea minuta var. nonfermentans IFO 1473", "conditions": "enzyme treated at 30° C. for 10 minutes", "method": "Further, the enzyme was treated in various reagents at 30° C. for 10 minutes and then 2,2,2-trifluoroacetophenone reducing activity was measured.", "values": [
      {"molecule": "[Cl][Pb][Cl]", "note": "[lead chloride]", "activity of enzyme in the presence of reagent": "considerably inhibited"},
      {"molecule": "O=[N+]([O-])[O-].[Hg+]", "note": "[mercury nitrate]", "activity of enzyme in the presence of reagent": "considerably inhibited"}
    ]}
  ]
}
